Test results published in PMC3914206.

Key:
Format in all cases: binding
Design in all cases: KINOMEscan: ABL1(F317L)-phosphorylated / KINOMEscan: ABL1(H396P)-nonphosphorylated / KINOMEscan: ABL1(H396P)-phosphorylated / KINOMEscan: ABL1(M351T)-phosphorylated / KINOMEscan: ABL1(T315I)-phosphorylated / KINOMEscan: ABL1-nonphosphorylated / KINOMEscan: ABL1-phosphorylated / KINOMEscan: ACVR2A / KINOMEscan: ACVR2B / KINOMEscan: ADCK3 / KINOMEscan: ADCK4 / KINOMEscan: AKT1 / KINOMEscan: AKT3 / KINOMEscan: ALK / KINOMEscan: ARK5 / KINOMEscan: AURKA / KINOMEscan: AURKC / KINOMEscan: BIKE / KINOMEscan: BMPR1A / KINOMEscan: BMPR1B / KINOMEscan: BMX / KINOMEscan: BRK / KINOMEscan: BRSK1 / KINOMEscan: BRSK2 / KINOMEscan: CAMK1 / KINOMEscan: CAMK1D / KINOMEscan: CAMK1G / KINOMEscan: CAMK2A / KINOMEscan: CAMK2B / KINOMEscan: AAK1 / KINOMEscan: CAMK2D / KINOMEscan: CAMK2G / KINOMEscan: ABL1(F317I)-nonphosphorylated / KINOMEscan: ABL1(F317I)-phosphorylated / KINOMEscan: ABL1(F317L)-nonphosphorylated: unit: % Ctrl
Conditions in all cases: Compound Concentration 10 µM
panel of 442 kinases [1] = biological target: T1, panel of 442 kinases (Homo sapiens, UniProt P00519, H396P)
T1 construct: purchased KINOMEscan
From the text: (§1) We assessed the selectivity of members of this scaffold using the KINOMEscan methodology across a near comprehensive panel of 442 kinases [[18,27]].

panel of 442 kinases [2] = biological target: T2, panel of 442 kinases (Homo sapiens, UniProt P36888)
T2 construct: purchased KINOMEscan
T2 sequence (P36888 27-993): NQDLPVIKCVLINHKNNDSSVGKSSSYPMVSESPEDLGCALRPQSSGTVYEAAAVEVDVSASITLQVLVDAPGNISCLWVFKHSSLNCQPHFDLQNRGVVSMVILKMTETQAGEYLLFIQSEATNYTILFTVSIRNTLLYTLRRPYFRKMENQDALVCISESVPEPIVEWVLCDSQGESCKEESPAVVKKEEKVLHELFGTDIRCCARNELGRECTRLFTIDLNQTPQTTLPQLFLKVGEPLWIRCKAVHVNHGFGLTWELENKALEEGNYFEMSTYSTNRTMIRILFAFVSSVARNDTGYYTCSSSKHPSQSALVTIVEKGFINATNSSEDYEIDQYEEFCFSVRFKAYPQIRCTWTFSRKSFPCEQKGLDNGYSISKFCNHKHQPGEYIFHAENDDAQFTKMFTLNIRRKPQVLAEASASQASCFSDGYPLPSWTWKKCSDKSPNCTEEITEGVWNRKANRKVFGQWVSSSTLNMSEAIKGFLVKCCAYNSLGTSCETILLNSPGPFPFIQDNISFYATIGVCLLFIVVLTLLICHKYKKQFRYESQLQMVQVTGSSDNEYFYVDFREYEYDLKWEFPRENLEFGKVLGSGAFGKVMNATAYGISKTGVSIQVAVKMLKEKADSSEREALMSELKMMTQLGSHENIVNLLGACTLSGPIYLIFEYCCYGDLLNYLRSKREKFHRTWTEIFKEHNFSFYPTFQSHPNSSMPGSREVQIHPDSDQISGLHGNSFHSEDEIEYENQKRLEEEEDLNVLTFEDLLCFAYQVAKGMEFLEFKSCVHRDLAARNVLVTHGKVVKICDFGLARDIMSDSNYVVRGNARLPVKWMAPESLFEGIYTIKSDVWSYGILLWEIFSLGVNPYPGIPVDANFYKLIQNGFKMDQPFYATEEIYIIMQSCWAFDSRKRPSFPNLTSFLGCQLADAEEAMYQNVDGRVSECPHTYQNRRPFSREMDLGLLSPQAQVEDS
From the text: as §1

panel of 442 kinases [3] = biological target: T3, panel of 442 kinases (Homo sapiens, UniProt P07949, V804L)
T3 construct: purchased KINOMEscan
T3 sequence (P07949 29-1114 V804L): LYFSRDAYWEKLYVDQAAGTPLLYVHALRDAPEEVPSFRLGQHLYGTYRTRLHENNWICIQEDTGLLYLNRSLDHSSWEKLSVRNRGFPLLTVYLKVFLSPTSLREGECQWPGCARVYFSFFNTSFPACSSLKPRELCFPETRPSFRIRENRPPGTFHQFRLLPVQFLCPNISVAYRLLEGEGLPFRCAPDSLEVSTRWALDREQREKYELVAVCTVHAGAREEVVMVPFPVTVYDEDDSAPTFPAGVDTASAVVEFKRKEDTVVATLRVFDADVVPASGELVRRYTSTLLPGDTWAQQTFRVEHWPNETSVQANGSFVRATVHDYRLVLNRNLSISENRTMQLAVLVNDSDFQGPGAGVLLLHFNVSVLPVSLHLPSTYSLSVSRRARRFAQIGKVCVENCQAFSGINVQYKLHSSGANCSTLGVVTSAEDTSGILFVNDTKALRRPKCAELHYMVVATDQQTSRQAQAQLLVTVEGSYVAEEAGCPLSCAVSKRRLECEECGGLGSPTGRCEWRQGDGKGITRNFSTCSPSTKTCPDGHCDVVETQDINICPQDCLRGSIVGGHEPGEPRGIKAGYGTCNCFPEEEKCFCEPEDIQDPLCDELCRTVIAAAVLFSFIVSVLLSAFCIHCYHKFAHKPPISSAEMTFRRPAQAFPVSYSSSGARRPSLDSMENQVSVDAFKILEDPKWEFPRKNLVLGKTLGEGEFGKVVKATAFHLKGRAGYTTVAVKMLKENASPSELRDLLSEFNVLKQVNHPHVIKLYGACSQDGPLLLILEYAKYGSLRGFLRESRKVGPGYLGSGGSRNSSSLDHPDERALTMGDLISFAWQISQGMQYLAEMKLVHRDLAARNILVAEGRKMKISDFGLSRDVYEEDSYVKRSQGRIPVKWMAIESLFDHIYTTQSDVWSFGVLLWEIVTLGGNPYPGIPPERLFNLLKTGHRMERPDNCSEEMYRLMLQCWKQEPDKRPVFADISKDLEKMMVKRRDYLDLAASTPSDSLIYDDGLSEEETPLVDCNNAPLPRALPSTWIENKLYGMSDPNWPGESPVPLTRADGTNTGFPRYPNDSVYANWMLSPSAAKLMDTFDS
From the text: as §1

| SMILES | KINOMEscan: ABL1(H396P)-nonphosphorylated (panel of 442 kinases [1]) | KINOMEscan: ABL1(H396P)-phosphorylated (panel of 442 kinases [1]) | KINOMEscan: FLT3 (panel of 442 kinases [2]) | KINOMEscan: RET(V804L) (panel of 442 kinases [3]) |
| --- | --- | --- | --- | --- |
| CCOc1cc(C(=O)N2CCC(N3CCN(C)CC3)CC2)ccc1Nc1ncc2c(n1)N(C1CCCC1)c1ccccc1C(=O)N2C [Compound 26] | 86 | 100 | 100 | 100 |
| COc1cc(C(=O)N2CCC(N3CCN(C)CC3)CC2)ccc1Nc1ncc2c(n1)N(C1CCCC1)c1ccccc1C(=O)N2C [Compound 25, 11-cyclopentyl-2-((2-methoxy-4-(4-(4-methylpiperazin-1-yl)piperidine-1-carbonyl)phenyl)amino)-5-methyl-5H-benzo[e]pyrimido[5,4-b][1,4]diazepin-6(11H)-one] | 47 | 100 | 100 | 100 |
| COc1cc(C(=O)N2CCC(N3CCN(C)CC3)CC2)ccc1Nc1ncc2c(n1)N1CCc3cccc(c31)C(=O)N2C [Compound 24] | 34 | 100 | – | 77 |
| COc1cc(C(=O)N2CCC(N3CCN(C)CC3)CC2)ccc1Nc1ncc2c(n1)N(C)c1ccccc1C(=O)N2C [15 (LRRK2-IN-1)] | 100 | 100 | 100 | 89 |
